Laboratory results from ChEMBL document CHEMBL3991601, “The target landscape of clinical kinase drugs” (Science, 2017).
Calls of active or inactive are those of the source. Rule as the data show it: actives have a measured Kd and inactives only a lower limit.

What was measured:
[1] = target: T1, Activin receptor type-1B (Homo sapiens, UniProt P36896)
T1 sequence (P36896 whole entry): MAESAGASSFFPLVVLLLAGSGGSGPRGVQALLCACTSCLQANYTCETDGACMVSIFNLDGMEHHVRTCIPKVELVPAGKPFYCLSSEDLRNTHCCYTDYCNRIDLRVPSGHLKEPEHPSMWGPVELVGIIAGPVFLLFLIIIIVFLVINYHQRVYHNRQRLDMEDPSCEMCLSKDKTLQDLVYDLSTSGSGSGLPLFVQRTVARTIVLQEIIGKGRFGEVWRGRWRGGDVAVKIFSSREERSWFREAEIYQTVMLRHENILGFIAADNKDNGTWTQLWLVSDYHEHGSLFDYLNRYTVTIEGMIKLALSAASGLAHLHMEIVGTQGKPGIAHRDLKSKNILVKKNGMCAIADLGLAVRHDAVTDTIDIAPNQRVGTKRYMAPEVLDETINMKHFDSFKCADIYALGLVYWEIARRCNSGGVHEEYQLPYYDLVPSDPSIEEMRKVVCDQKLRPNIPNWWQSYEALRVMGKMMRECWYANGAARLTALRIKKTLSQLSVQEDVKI

[2] = target: T2, Ephrin type-A receptor 1 (Homo sapiens, UniProt P21709)
T2 sequence (P21709 whole entry): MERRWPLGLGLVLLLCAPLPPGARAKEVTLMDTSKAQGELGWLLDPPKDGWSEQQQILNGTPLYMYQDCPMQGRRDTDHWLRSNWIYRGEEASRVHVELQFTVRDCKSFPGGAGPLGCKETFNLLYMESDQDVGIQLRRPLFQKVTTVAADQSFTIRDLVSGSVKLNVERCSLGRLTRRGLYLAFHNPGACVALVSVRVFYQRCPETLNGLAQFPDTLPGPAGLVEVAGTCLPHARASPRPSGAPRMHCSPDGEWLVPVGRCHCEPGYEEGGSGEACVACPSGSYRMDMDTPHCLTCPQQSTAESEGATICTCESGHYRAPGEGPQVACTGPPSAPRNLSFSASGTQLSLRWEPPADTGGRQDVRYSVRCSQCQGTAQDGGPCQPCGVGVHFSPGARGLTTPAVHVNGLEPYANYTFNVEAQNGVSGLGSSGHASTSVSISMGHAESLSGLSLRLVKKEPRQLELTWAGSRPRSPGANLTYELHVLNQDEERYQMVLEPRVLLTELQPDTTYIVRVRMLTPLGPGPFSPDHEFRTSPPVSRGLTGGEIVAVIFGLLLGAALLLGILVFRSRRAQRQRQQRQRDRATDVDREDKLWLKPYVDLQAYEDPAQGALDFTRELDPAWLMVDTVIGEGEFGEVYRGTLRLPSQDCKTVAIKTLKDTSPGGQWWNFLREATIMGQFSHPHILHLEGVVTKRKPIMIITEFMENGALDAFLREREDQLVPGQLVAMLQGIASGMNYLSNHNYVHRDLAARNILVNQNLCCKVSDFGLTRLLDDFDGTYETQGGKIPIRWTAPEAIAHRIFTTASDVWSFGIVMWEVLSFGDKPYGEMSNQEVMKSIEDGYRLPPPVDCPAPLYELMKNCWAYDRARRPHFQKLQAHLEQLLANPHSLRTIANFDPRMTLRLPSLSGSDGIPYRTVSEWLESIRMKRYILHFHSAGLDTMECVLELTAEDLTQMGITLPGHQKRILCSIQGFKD

[3] = target: T3, Ephrin type-B receptor 4 (Homo sapiens, UniProt P54760)
T3 sequence (P54760 whole entry): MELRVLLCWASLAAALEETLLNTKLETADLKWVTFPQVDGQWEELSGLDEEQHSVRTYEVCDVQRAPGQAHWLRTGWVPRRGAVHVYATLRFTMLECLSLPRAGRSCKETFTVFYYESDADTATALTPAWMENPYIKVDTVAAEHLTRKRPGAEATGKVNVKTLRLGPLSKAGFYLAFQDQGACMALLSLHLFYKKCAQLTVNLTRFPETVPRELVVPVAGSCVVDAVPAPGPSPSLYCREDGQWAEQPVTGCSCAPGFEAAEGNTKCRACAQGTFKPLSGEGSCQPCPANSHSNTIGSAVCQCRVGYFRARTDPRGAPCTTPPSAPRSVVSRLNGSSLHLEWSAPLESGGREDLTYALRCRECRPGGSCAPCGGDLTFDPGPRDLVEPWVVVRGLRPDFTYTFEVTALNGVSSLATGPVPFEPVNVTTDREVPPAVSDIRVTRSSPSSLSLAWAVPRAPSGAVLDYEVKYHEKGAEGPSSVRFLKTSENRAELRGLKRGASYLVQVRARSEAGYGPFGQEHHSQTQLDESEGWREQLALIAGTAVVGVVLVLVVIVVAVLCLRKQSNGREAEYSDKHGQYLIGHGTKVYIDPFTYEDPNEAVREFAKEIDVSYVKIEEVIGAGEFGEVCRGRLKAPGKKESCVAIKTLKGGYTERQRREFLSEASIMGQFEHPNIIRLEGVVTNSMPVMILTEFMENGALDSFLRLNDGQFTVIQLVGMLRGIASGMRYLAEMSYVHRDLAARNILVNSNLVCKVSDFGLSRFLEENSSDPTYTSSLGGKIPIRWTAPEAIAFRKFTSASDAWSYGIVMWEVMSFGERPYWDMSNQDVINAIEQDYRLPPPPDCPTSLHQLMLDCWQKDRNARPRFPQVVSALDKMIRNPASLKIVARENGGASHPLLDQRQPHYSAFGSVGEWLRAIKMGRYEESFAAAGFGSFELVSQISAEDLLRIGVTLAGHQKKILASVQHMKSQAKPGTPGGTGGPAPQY

[4] = target: Glycogen synthase kinase-3 beta (Homo sapiens, UniProt P49841)
Glycogen synthase kinase-3 beta, sequence (P49841 whole entry): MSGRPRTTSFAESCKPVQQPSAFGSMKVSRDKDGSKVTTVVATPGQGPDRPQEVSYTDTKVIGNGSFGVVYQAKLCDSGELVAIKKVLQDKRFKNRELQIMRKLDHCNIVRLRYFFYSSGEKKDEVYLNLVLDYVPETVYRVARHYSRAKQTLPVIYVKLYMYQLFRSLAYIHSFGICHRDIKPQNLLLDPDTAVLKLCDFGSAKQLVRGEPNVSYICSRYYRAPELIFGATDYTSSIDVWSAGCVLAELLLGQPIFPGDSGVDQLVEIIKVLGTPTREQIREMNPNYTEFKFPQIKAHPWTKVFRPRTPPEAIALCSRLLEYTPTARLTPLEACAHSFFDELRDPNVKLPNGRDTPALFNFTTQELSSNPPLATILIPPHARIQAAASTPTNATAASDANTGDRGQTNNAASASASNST

[5] = target: Mitogen-activated protein kinase 8 (Homo sapiens, UniProt P45983)
Mitogen-activated protein kinase 8, sequence (P45983 whole entry): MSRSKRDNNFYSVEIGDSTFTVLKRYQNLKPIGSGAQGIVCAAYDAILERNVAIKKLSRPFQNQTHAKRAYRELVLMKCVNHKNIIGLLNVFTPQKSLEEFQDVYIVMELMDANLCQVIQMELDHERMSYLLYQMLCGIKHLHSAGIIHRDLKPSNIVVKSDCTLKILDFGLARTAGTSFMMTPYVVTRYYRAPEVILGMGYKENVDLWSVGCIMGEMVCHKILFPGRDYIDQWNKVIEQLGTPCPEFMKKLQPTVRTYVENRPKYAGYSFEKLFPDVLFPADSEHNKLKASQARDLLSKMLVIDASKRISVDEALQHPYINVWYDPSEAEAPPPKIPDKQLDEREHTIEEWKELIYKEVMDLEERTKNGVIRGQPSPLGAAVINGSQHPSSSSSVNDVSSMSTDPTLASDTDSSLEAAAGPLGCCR

[6] = target: STE20-like serine/threonine-protein kinase (Homo sapiens, UniProt Q9H2G2)
STE20-like serine/threonine-protein kinase, sequence (Q9H2G2 whole entry): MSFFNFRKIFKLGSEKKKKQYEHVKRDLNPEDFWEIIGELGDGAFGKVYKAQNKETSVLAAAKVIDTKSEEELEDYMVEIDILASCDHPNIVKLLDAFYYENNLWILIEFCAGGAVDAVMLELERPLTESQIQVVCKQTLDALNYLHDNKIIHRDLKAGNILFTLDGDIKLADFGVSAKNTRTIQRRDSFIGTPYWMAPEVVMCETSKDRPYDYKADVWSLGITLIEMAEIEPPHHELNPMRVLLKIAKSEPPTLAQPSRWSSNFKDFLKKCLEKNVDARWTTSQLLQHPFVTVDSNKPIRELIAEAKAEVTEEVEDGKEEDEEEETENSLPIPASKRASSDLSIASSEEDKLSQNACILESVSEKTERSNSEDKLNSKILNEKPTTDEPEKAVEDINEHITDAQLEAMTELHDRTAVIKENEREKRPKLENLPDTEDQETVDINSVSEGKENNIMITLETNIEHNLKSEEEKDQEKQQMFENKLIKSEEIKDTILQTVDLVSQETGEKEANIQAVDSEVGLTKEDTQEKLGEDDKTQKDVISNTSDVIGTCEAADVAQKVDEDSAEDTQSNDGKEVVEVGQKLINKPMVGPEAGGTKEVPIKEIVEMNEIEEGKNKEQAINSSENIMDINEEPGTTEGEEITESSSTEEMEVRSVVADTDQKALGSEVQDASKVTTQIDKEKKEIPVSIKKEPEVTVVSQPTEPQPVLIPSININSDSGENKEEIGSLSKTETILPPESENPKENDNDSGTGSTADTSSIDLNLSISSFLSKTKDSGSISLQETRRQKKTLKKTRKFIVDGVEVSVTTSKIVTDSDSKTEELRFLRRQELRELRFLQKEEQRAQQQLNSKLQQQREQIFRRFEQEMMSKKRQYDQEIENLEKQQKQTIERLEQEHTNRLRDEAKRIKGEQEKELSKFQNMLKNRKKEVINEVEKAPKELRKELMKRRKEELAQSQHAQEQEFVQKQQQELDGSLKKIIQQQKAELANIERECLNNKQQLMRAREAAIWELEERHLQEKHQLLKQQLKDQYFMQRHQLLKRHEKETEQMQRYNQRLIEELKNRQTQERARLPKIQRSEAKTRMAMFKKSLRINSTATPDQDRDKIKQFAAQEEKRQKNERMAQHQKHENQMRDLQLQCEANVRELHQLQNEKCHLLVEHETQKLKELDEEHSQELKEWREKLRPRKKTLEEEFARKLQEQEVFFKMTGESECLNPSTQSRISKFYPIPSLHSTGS

[7] = target: TRAF2 and NCK-interacting protein kinase (Homo sapiens, UniProt Q9UKE5)
TRAF2 and NCK-interacting protein kinase, sequence (Q9UKE5 whole entry): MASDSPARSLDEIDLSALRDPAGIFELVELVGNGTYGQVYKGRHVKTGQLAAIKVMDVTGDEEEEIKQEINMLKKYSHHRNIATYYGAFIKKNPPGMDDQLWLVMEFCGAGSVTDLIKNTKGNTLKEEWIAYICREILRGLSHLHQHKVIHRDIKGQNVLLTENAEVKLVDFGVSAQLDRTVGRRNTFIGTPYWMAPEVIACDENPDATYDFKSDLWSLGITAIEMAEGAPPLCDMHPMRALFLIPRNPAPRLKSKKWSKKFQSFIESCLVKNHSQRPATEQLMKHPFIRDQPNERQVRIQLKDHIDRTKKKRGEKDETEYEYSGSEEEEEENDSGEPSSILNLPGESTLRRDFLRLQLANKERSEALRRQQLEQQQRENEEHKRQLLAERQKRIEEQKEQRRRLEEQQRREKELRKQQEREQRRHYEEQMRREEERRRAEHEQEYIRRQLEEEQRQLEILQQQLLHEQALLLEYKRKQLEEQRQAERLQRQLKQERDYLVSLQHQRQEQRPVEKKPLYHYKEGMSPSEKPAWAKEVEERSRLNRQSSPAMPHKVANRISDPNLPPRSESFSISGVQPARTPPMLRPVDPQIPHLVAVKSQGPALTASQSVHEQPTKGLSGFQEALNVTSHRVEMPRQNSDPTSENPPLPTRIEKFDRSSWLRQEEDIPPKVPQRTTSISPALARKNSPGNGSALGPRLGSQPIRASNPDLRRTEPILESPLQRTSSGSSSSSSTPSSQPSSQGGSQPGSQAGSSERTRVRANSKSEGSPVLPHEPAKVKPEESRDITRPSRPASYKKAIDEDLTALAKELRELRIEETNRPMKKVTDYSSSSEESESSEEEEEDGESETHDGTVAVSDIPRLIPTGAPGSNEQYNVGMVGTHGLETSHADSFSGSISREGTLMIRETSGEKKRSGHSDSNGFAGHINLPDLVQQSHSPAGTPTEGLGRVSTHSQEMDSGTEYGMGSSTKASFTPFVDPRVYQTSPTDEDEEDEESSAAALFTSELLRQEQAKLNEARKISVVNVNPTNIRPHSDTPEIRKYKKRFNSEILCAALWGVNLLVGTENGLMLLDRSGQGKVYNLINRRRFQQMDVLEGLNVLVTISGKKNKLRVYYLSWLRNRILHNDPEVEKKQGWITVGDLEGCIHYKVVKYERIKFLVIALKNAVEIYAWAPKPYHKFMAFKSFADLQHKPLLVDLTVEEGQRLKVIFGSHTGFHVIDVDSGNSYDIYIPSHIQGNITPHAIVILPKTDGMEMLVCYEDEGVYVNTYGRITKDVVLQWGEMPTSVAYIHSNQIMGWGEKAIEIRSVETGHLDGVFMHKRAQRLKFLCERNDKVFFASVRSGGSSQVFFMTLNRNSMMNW
Also: in the data inactive means no Kd found up to 30 µM.

Compound: Cn1ncc(Cl)c1-c1cc(C(=O)N[C@H](CN)Cc2ccc(F)c(F)c2)oc1Cl [UPROSERTIB]
- Kd [1]: > 30 µM (inactive)
- Kd [2]: > 30 µM (inactive)
- Kd [3]: > 30 µM (inactive)
- Kd [4]: > 30 µM (inactive)
- Kd [5]: > 30 µM (inactive)
- Kd [6]: > 30 µM (inactive)
- Kd [7]: > 30 µM (inactive)

Compound: CCCCCCCCCCCCCCCCCCOP(=O)([O-])OC1CC[N+](C)(C)CC1 [PERIFOSINE]
- Kd [1]: > 30 µM (inactive)
- Kd [2]: > 30 µM (inactive)
- Kd [3]: > 30 µM (inactive)
- Kd [4]: > 30 µM (inactive)
- Kd [5]: > 30 µM (inactive)
- Kd [6]: > 30 µM (inactive)
- Kd [7]: > 30 µM (inactive)

Compound: C[C@H]1CNCCCN1S(=O)(=O)c1cccc2cncc(F)c12
- Kd [1]: > 30 µM (inactive)
- Kd [2]: > 30 µM (inactive)
- Kd [3]: > 30 µM (inactive)
- Kd [4]: > 30 µM (inactive)
- Kd [5]: > 30 µM (inactive)
- Kd [6]: > 30 µM (inactive)
- Kd [7]: > 30 µM (inactive)

Compound: Cc1cnc(NC(=O)Nc2cc(Br)c(C)cc2OC[C@@H]2CNCCO2)cn1 [RABUSERTIB]
- Kd [1]: > 30 µM (inactive)
- Kd [2]: > 30 µM (inactive)
- Kd [3]: > 30 µM (inactive)
- Kd [4]: > 30 µM (inactive)
- Kd [5]: > 30 µM (inactive)
- Kd [6]: > 30 µM (inactive)
- Kd [7]: > 30 µM (inactive)

Compound: C[C@@H](Oc1cc(C(=O)Nc2ccc(C(=O)N3CCN(C)CC3)cc2)nnc1N)c1c(Cl)ccc(F)c1Cl
- Kd [1]: > 30 µM (inactive)
- Kd [2]: > 30 µM (inactive)
- Kd [3]: > 30 µM (inactive)
- Kd [4]: > 30 µM (inactive)
- Kd [5]: > 30 µM (inactive)
- Kd [6]: > 30 µM (inactive)
- Kd [7]: > 30 µM (inactive)

Compound: O=C(Nc1nc2cccc(-c3ccc(CN4CCS(=O)(=O)CC4)cc3)n2n1)C1CC1 [FILGOTINIB]
- Kd [1]: > 30 µM (inactive)
- Kd [2]: > 30 µM (inactive)
- Kd [3]: > 30 µM (inactive)
- Kd [4]: > 30 µM (inactive)
- Kd [5]: > 30 µM (inactive)
- Kd [6]: 9.27 µM (active)
- Kd [7]: > 30 µM (inactive)

Compound: Cc1nc(Nc2n[nH]c3c2CN(C(=O)N[C@H](CN(C)C)c2ccccc2)C3(C)C)c2sccc2n1 [PF-03758309]
- Kd [1]: > 30 µM (inactive)
- Kd [2]: > 30 µM (inactive)
- Kd [3]: > 30 µM (inactive)
- Kd [4]: 0.667 µM (active)
- Kd [5]: > 30 µM (inactive)
- Kd [6]: > 30 µM (inactive)
- Kd [7]: > 30 µM (inactive)

Compound: COc1cc([C@@H]2c3cc4c(cc3[C@H](O)[C@H]3COC(=O)[C@@H]23)OCO4)cc(OC)c1OC [AXL-1717]
- Kd [1]: > 30 µM (inactive)
- Kd [2]: > 30 µM (inactive)
- Kd [3]: > 30 µM (inactive)
- Kd [4]: > 30 µM (inactive)
- Kd [5]: > 30 µM (inactive)
- Kd [6]: > 30 µM (inactive)
- Kd [7]: > 30 µM (inactive)

Compound: COCc1c(-c2ccc(NC(=O)Nc3cc(C(F)(F)F)ccc3F)c(F)c2)c2c(N)ncnn2c1CN1CCOCC1
- Kd [1]: > 30 µM (inactive)
- Kd [2]: > 30 µM (inactive)
- Kd [3]: > 30 µM (inactive)
- Kd [4]: > 30 µM (inactive)
- Kd [5]: > 30 µM (inactive)
- Kd [6]: > 30 µM (inactive)
- Kd [7]: > 30 µM (inactive)

Compound: Nc1ncnc2c1c(-c1cccc(OCc3ccccc3)c1)cn2[C@H]1C[C@@H](CN2CCC2)C1 [AEW-541]
- Kd [1]: > 30 µM (inactive)
- Kd [2]: > 30 µM (inactive)
- Kd [3]: > 30 µM (inactive)
- Kd [4]: > 30 µM (inactive)
- Kd [5]: > 30 µM (inactive)
- Kd [6]: > 30 µM (inactive)
- Kd [7]: > 30 µM (inactive)

Compound: C=CC(=O)N1CCC[C@H](n2c(=O)n(-c3ccc(Oc4ccccc4)cc3)c3c(N)ncnc32)C1
- Kd [1]: > 30 µM (inactive)
- Kd [2]: > 30 µM (inactive)
- Kd [3]: > 30 µM (inactive)
- Kd [4]: > 30 µM (inactive)
- Kd [5]: > 30 µM (inactive)
- Kd [6]: > 30 µM (inactive)
- Kd [7]: > 30 µM (inactive)

Compound: COc1ccc(S(=O)(=O)N(C(C)=O)c2ccccc2/C=C/c2cc[n+]([O-])cc2)cc1 [HMN-214]
- Kd [1]: > 30 µM (inactive)
- Kd [2]: > 30 µM (inactive)
- Kd [3]: > 30 µM (inactive)
- Kd [4]: > 30 µM (inactive)
- Kd [5]: > 30 µM (inactive)
- Kd [6]: > 30 µM (inactive)
- Kd [7]: > 30 µM (inactive)

Compound: COc1cc2c(Nc3ccc(Cl)c(Cl)c3F)ncnc2cc1OC[C@@H]1C[C@@H]2CN(C)C[C@@H]2C1 [TESEVATINIB]
- Kd [1]: > 30 µM (inactive)
- Kd [2]: 0.008 µM (active)
- Kd [3]: 0.037 µM (active)
- Kd [4]: > 30 µM (inactive)
- Kd [5]: > 30 µM (inactive)
- Kd [6]: 3.42 µM (active)
- Kd [7]: > 30 µM (inactive)

Compound: CO[C@H]1C[C@@H]2CC[C@@H](C)[C@@](O)(O2)C(=O)C(=O)N2CCCC[C@H]2C(=O)O[C@H]([C@H](C)C[C@@H]2CC[C@@H](OC(=O)C(C)(CO)CO)[C@H](OC)C2)CC(=O)[C@H](C)/C=C(\C)[C@@H](O)[C@@H](OC)C(=O)[C@H](C)C[C@H](C)/C=C/C=C/C=C/1C [TEMSIROLIMUS]
- Kd [1]: > 30 µM (inactive)
- Kd [2]: > 30 µM (inactive)
- Kd [3]: > 30 µM (inactive)
- Kd [4]: > 30 µM (inactive)
- Kd [5]: > 30 µM (inactive)
- Kd [6]: > 30 µM (inactive)
- Kd [7]: > 30 µM (inactive)

Compound: Cn1cnc2c(F)c(Nc3ccc(Br)cc3F)c(C(=O)NOCCO)cc21 [BINIMETINIB]
- Kd [1]: > 30 µM (inactive)
- Kd [2]: > 30 µM (inactive)
- Kd [3]: > 30 µM (inactive)
- Kd [4]: > 30 µM (inactive)
- Kd [5]: > 30 µM (inactive)
- Kd [6]: > 30 µM (inactive)
- Kd [7]: > 30 µM (inactive)

Compound: O=c1[nH]ccc2cc(OC3CCNCC3)ccc12 [SAR-407899 FREE BASE]
- Kd [1]: > 30 µM (inactive)
- Kd [2]: > 30 µM (inactive)
- Kd [3]: > 30 µM (inactive)
- Kd [4]: > 30 µM (inactive)
- Kd [5]: > 30 µM (inactive)
- Kd [6]: > 30 µM (inactive)
- Kd [7]: > 30 µM (inactive)

Compound: CNC(=O)c1cccc2cc(Oc3ccnc4cc(OCC5(N)CC5)c(OC)cc34)ccc12 [LUCITANIB]
- Kd [1]: > 30 µM (inactive)
- Kd [2]: > 30 µM (inactive)
- Kd [3]: > 30 µM (inactive)
- Kd [4]: > 30 µM (inactive)
- Kd [5]: > 30 µM (inactive)
- Kd [6]: > 30 µM (inactive)
- Kd [7]: > 30 µM (inactive)

Compound: C=CC(=O)Nc1cc2c(Nc3ccc(F)c(Cl)c3)ncnc2cc1C#CC(C)(C)N1CCN(C)CC1 [AV-412 FREE BASE]
- Kd [1]: > 30 µM (inactive)
- Kd [2]: > 30 µM (inactive)
- Kd [3]: > 30 µM (inactive)
- Kd [4]: > 30 µM (inactive)
- Kd [5]: > 30 µM (inactive)
- Kd [6]: 13.4 µM (active)
- Kd [7]: > 30 µM (inactive)
